Assay results reported in paper PMC10933344, “A lncRNA Dleu2-encoded peptide relieves autoimmunity by facilitating Smad3-mediated Treg induction” (EMBO Reports, 2024).

Test system: naive CD4+ T cells
Assay: In vitro iTreg differentiation (Foxp3+ of CD4+ cells)
Type: cell-based, mouse
Conditions: 20 μM, 72 h
Method: C57BL/6 mice were sacrificed, and their spleens and peripheral lymph nodes were removed and gently dissociated into single-cell suspensions. Naive T cells were isolated using the Mouse CD4 Naive T Cell Isolation Kit (BioLegend, Stem Cell, or Thermo Fisher Scientific). Flow cytometry verified that the purity (CD4^+CD25^−CD62L^hi) of the enriched subpopulation was typically higher than 95%. All T cells were cultured using RPMI-1640 medium (Gibco) supplemented with 10% heat-inactivated fetal bovine serum (Gibco), 2 mM L-glutamine (Gibco), 10,000 units/mL of penicillin, 10,000 µg/mL of streptomycin, and 25 µg/mL of Gibco Amphotericin B (Thermo Fisher Scientific), 10 mM HEPES (Gibco), 1 mM Sodium pyruvate, MEM Non-Essential Amino Acids (Life Technologies) and 55 μM β-mercaptoethanol (Gibco). 0.1 million naive CD4^+ T cells were activated with plate-coated anti-CD3 (2.5 μg/ml; BD Biosciences) and soluble anti-CD28 (2 μg/ml; BD Biosciences) antibodies. The Th1 cell differentiation condition included recombinant murine (rm)IL-12 (10 ng/ml, PeproTech) and anti-IL-4 (10 μg/ml, BioLegend). The Th17 cell differentiation condition included rmIL-6 (10 ng/ml, PeproTech), rmTGF-β1 (5 ng/ml, PeproTech), rmIL-23 (10 ng/ml, PeproTech), anti-IL-4 (5 μg/ml, BioLegend) and anti-IFN-γ (10 μg/ml, eBioscience). The inducible T regulatory cell (iTreg) differentiation condition included rmTGF-β (5 ng/ml, PeproTech). 0.1 million naive CD8^+ T cells were activated with plate-coated anti-CD3 (10 μg/ml; BD Biosciences) and plate-coated anti-CD28 (10 μg/ml; BD Biosciences) antibodies. The Tc17 cell differentiation condition included rmIL-6 (10 ng/ml, PeproTech), rmTGF-β1 (2 ng/ml, PeproTech), rmIL-23 (25 ng/ml, PeproTech), rmIL1-β (5 ng/ml, PeproTech), and anti-IFN-γ (10 μg/ml, eBioscience). The Tc1 cell differentiation condition included rmIL-2 (5 ng/ml, PeproTech) and rm IL-12 (1 ng/ml, PeproTech). Different concentrations of Dleu2-17aa and scrPEP (Genscript) were added to the T cell culture from the beginning unless specified. Cells were cultured in U-bottom 96-well plates for 72 h and detected by flow cytometry.
For in vitro mouse T cell differentiation, after 72 h of induction, cells were activated for 4–6 h at 37 °C with the Cell Stimulation Cocktail (Thermo Fisher Scientific) if intracellular cytokine staining is needed, surface markers were stained in FACS buffer (PBS containing 2% FBS) for 30 min at 4 °C protected from light. Cells were then fixed and permeabilized with the Foxp3 Staining Buffer Set (eBioscience) or BD Cytofix/Cytoperm (BD Biosciences) and were stained with fluorescent antibodies. After washing, stained cells were assayed with an LSRFortessa (BD) flow cytometer, and data were analyzed with FlowJo software. Single-cell suspensions from EAE mouse spleen or CNS (day 16 post-immunization) were derived through mechanical separation and passage through a 70-μm filter (Fisherbrand) and analyzed using similar steps. For flow cytometry, antibodies against CD4 (clone GK1.5, 1:200), CD62L (clone MEL-14, 1:200), CD44 (clone IM7, 1:200), CD25 (clone PC61.5, 1:200), IL-17A (clone eBio17B7, 1:200), IFN-γ (clone XMG1.2, 1:200), FoxP3 (clone FJK-16s, 1:200), CD184 (clone 2B11/CXCR4, 1:100), CD152 (clone BNI3 1:100) and CD357 (clone DTA-1 1:100) were from eBioscience, CD3 (clone 145-2C11, 1:200) was from Biolegend and TGFBI (1:100) were from proteintech. For Dleu2-17aa expression detection, C57BL/6 mice were sacrificed, and their spleens were removed and gently dissociated into single-cell suspensions. An Fc blocker was used to reduce potential nonspecific antibody staining caused by IgG. Surface staining was performed using monoclonal antibodies against CD45 (clone 30-F11), CD3 (clone 145-2C11), CD19 (clone SJ25C1), CD11c (clone N418), MHCII (clone M5/114.15.2), F4/80 (clone BM8) all at a dilution of 1:200 (from Biolengend) followed by fixation and permeabilization of the nuclear membrane BD Cytofix/Cytoperm (BD Biosciences). […]

Question: How did the “Foxp3+/ CD4+ Cells (%)” value (replicate 1) turn out when “ARGPARRMRGGRRRRLR [scrPEP, scrambled control peptide of Dleu2-17aa]” was run?
Answer: The value was 32.8%.

Question: What about the “Foxp3+/ CD4+ Cells (%)” value (replicate 2) of the same sequence?
Answer: Its value is 22.9%.

Question: What about the “Foxp3+/ CD4+ Cells (%)” value (replicate 3) of the same sequence?
Answer: Its value is 16.77%.

Question: What about the “Foxp3+/ CD4+ Cells (%)” value (replicate 4) of the same sequence?
Answer: Its value is 32.13%.

Question: And the “Foxp3+/ CD4+ Cells (%)” value (replicate 5)?
Answer: The value was 22.9%.

Question: What about the “Foxp3+/ CD4+ Cells (%)” value (replicate 6) of the same sequence?
Answer: Its value is 10.3%.

Question: And the “Foxp3+/ CD4+ Cells (%)” value (replicate 7)?
Answer: Its value is 30.6%.
